Measurements published in article PMC9112550, “Optimization of the antimicrobial peptide Bac7 by deep mutational scanning” (BMC Biology, 2022).
Where no end group is shown, it is not given here.

Tests used:
[1] = test system: E. coli ATCC 25922; type: cell-based; details: E. coli ATCC 25922 quality control strain; MHB II; 18 h, 37°C; averaged (n>3)
[2] = test system: E. coli TOP10; assay: Deep mutational scanning, site-saturation Bac7_1-23 library, intracellular self-screening with NGS; type: cell-based; details: intracellular expression
Description: A focused strategy was pursued to generate diversity at positions 5, 18, 19, and 20 in the Bac7_1-23 peptide. […] Degeneration was introduced by using the QuikChange technique, amplifying the pBAD plasmid containing the Bac7_1-23 gene using a mixture of 20 oligonucleotides (Additional file 1: Table S1) at a final concentration of 0.3 μM and Phusion® High-Fidelity PCR Master Mix in HF buffer. The amplification was performed using 20 cycles of 98°C for 10 s, 60°C for 15 s, and 72°C for 10 s. The PCR product was treated with the enzyme Dpn1 to remove the template plasmid and subsequently purified. The purified product was used to transform 20 μl of CloneCatcher™ Gold DH5G Electrocompetent E. coli (Genlantis, Burlington, USA) cells using electroporation.
To assess the antimicrobial activity of multiple peptides in parallel when expressed intracellularly in E. coli TOP10, previously prepared aliquots containing E. coli plasmid libraries created by either random mutagenesis or site-saturation mutagenesis were used. For both approaches, three aliquots containing approximately 500 million cells each of E. coli TOP10 harboring peptide-encoding DNA sequences on the pBAD plasmid were thawed and added to three 1-l baffled shake flasks containing 100 ml of LB medium + 100 μg ml^−1 carbenicillin. The cultures were grown for roughly 7 h at 37°C.

RRIRIRPPRLPRPRPRPYFMPRP [Bac7PS]
MIC [1]: 2.6 µM
antimicrobial activity in the library [2]: the most active
